Reference: patent US7745450B2, “Pyrazolo[4,3-d]pyrimidines, processes for their preparation and methods for therapy” (Institute of Experimental Botany, priority 2002, dated 2010)

Key:
IκB-α kinase = IκB-α kinase inhibition, in vitro kinase assay; type: biochemical
cdk1/cyclin B (CDC2) = cdk1/cyclin B (CDC2) (Homo sapiens, UniProt P06493); test: CDK inhibition assay, cdk1/cyclin B (CDC2) kinase, histone phosphorylation; type: biochemical
Procedure: Selected compounds were tested for cdk1/cyclin B and cdk2/cyclin E inhibitory activity to determine the basic relationships between their interaction energy of docked complex and the inhibitory activity. Cdk2/cyclin E complex was produced in SIP insect cells co-infected with appropriate baculoviral construct. The cells were harvested 70 hours post infection in lysis buffer (50 mM Tris 7.4 pH, 150 mM NaCl, 5 mM EDTA, 20 mM NaF, 1% Tween 20, protease inhibitors) for 30 min on ice and the soluble fraction was recovered by centrifugation at 14.000 g for 10 min. The protein extract was stored at −80° C. until use. The final point test system for kinase activity measurement was used to carry out experiments on the kinetics under linear conditions. The assay mixture contained 1 mg/ml histone (Sigma Type III-S), 15 μM ATP, 0.2 μCi [γ-^32P] ATP and tested compound in a final volume of 20 μl, all in reaction buffer: 50 mM Hepes 7.4 pH, 10 mM MgCl2, 5 mM EGTA, 10 mM 2-glycerolphosphate, 1 mM NaF, 1 mM DTT and protease inhibitors. […] The measurement of kinase inhibition employed the digital imaging analyzer BAS 1800. The kinase activity was expressed as a percentage of maximum activity and the IC50 value was determined by graphic analysis. The kinase activity is expressed as a percentage of maximum activity, the apparent inhibition constants are determined by graphic analysis from dose-response curves presented on FIG. 1.

[1] = test system: CEM (human lymphoblastoid leukemia); test: In vitro cytotoxic activity, Calcein AM; type: cell-based; details: Homo sapiens, 72 h, three days
Procedure: We have been using the following cell lines: HELA (human cervical carcinoma), MCF7 (human breast adenocarcinoma), NIH 3T3 (mouse fibroblasts), HOS (human osteogenic sarcoma), HL 60 (human promyelocytic leukemia), G 361 (human malignant melanoma), K562 (human erythroleukemia), CEM (human lymphoblastoid leukemia). Tested drugs were added to the cell cultures in six different concentration and kept at 37° C. and 5% CO2 for three days. All cell lines were grown in DMEM medium (Gibco BRL) supplemented with 10% (v/v) fetal bovine serum and L-glutamine and maintained at 37° C. in a humidified atmosphere with 5% CO2. 10^4 cells were seeded into each well of 96 well plate, allowed to stabilize for at least 2 h and then tested compounds were added at various concentrations ranging from 200 to 0.2 μM in triplicates. Three days after drug addition Calcein AM solution (Molecular Probes) was added and let to enter the cells for 1 hour. Fluorescence of viable cells was quantified employing Fluoroskan Ascent (Microsystems).

B16 = test: In vitro cytotoxic activity, Calcein AM; type: cell-based; details: Mus musculus, B16, 72 h, three days

Sequence of cdk1/cyclin B (CDC2) (P06493 whole entry, species assumed): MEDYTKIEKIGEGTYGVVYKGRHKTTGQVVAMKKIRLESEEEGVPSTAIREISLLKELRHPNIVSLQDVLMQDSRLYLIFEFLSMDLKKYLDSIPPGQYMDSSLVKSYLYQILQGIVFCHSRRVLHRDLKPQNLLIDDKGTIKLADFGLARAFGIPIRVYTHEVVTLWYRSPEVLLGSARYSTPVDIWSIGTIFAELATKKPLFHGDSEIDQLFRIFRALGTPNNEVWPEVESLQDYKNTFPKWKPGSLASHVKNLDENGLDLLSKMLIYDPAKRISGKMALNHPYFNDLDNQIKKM
Sequence of cdk1/cyclin B (CDC2) (P14635 whole entry partner, species assumed): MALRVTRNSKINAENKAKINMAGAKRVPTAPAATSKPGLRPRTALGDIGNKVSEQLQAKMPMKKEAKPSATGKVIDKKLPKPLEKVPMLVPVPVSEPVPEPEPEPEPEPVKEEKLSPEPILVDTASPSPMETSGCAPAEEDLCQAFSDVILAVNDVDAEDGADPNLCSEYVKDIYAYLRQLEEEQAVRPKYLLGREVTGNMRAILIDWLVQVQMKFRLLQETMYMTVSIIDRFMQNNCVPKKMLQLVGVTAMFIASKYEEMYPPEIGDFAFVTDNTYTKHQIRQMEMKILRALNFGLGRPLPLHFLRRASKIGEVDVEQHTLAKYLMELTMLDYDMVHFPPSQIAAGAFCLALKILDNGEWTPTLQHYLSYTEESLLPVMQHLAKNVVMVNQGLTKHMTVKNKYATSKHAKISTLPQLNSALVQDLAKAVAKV

SMILES | IC50 (IκB-α kinase) [nM] | IC50 (cdk1/cyclin B (CDC2)) [nM] | GI50 [1] [nM] | GI50 (B16) [nM]
CC(=O)Oc1ccccc1CNc1nc(NCCO)nc2c(C)n[nH]c12 | 1200 | 500 | – | –
CC(=O)c1ccccc1CNc1nc(NCCO)nc2c(C)n[nH]c12 | 50 | 10 | – | –
CC(=O)Oc1cccc(CNc2nc(NCCO)nc3c(C)n[nH]c23)c1 | 1700 | 400 | – | –
CC(=O)c1cccc(CNc2nc(NCCO)nc3c(C)n[nH]c23)c1 | 90 | 40 | – | –
Cc1n[nH]c2c(Nc3ccc(Cl)c(N)c3)nc(NCCO)nc12 | 23 | 9 | – | –
Cc1n[nH]c2c(Nc3ccc(Cl)c(C(=O)O)c3)nc(NCCO)nc12 | 10 | 5 | – | –
Cc1n[nH]c2c(Nc3ccc(O)c(C(=O)O)c3)nc(NCCO)nc12 | 50 | 20 | – | –
Cc1n[nH]c2c(Nc3ccc(N)c(Cl)c3)nc(NCCO)nc12 | 29 | 12 | – | –
Cc1n[nH]c2c(Nc3ccc(C(=O)O)c(Cl)c3)nc(NCCO)nc12 | 14 | 7 | – | –
Cc1n[nH]c2c(Nc3cc(N)cc(Cl)c3)nc(NCCO)nc12 | 20 | 10 | – | –
Cc1n[nH]c2c(Nc3cccc(Cl)c3)nc(NCCO)nc12 | 90 | 40 | – | –
Cc1n[nH]c2c(NCc3cccc(O)c3)nc(NCCO)nc12 | 240 | 80 | – | –
Cc1n[nH]c2c(Nc3ccc(Br)cc3)nc(NCCO)nc12 | 20 | 8 | – | –
Cc1n[nH]c2c(Nc3ccc(Cl)cc3)nc(NCCO)nc12 | 19 | 9 | – | –
CC(C)c1n[nH]c2c(Nc3cccc(Cl)c3)nc(N(CCO)CCO)nc12 | 190 | 90 | – | –
CC(C)c1n[nH]c2c(NCc3c(N)cccc3Cl)nc(N[C@@H](CO)C(C)C)nc12 | – | – | 1500 | 2500
CC(C)c1n[nH]c2c(NCc3cccc(Cl)c3O)nc(N[C@@H](CO)C(C)C)nc12 | – | – | 700 | 1100
Cc1cccc(CNc2nc(N[C@@H](CO)C(C)C)nc3c(C(C)C)n[nH]c23)c1O | – | – | 1200 | 3500
CC(C)c1n[nH]c2c(NCc3ccccc3O)nc(N[C@@H](CO)C(C)C)nc12 [listing 2 of 2 here] | – | – | 6700 | 9800
COc1ccc(CNc2nc(N[C@@H](CO)C(C)C)nc3c(C(C)C)n[nH]c23)c(O)c1O [listing 2 of 2 here] | – | – | 600 | 2500
CC(C)c1n[nH]c2c(NCc3ccc(Cl)c(O)c3O)nc(N[C@@H](CO)C(C)C)nc12 [listing 2 of 2 here] | – | – | 900 | 1400

SMILES | IC50 (IκB-α kinase) [nM] | IC50 (cdk1/cyclin B (CDC2)) [nM] | GI50 [1] [nM] | GI50 (B16) [nM]
CC(C)c1n[nH]c2c(NCc3cc(O)c(Cl)cc3O)nc(N[C@@H](CO)C(C)C)nc12 [listing 1 of 2 here] | – | – | 1300 | 2700
COc1cc(O)c(CNc2nc(N[C@@H](CO)C(C)C)nc3c(C(C)C)n[nH]c23)cc1O [listing 2 of 2 here] | – | – | 1700 | 2500
CC(C)c1n[nH]c2c(NCc3c(O)cc(Cl)cc3O)nc(N[C@@H](CO)C(C)C)nc12 [listing 2 of 2 here] | – | – | 400 | 1200
CC(=O)Oc1cccc(CNc2nc(N[C@@H](CO)C(C)C)nc3c(C(C)C)n[nH]c23)c1 | – | – | 12500 | 14600
CC(C)c1n[nH]c2c(Nc3ccc(Cl)c(N)c3)nc(N[C@@H](CO)C(C)C)nc12 | – | – | 2900 | 4400
CC(C)c1n[nH]c2c(NCc3ccc(Cl)c(N)c3)nc(N[C@@H](CO)C(C)C)nc12 | – | – | 2600 | 4400
CC(C)c1n[nH]c2c(Nc3ccc(Cl)c(C(=O)O)c3)nc(N[C@@H](CO)C(C)C)nc12 | – | – | 5800 | 9100
CC(C)c1n[nH]c2c(Nc3ccc(O)c(C(=O)O)c3)nc(N[C@@H](CO)C(C)C)nc12 | – | – | 2700 | 4200
CC(C)c1n[nH]c2c(Nc3ccc(C(=O)O)c(Cl)c3)nc(N[C@@H](CO)C(C)C)nc12 | – | – | 7600 | 12400
CC(C)c1n[nH]c2c(Nc3ccc(N)c(Cl)c3)nc(N[C@@H](CO)C(C)C)nc12 | – | – | 2500 | 4800
CC(C)c1n[nH]c2c(NCc3cccc(O)c3)nc(N[C@@H](CO)C(C)C)nc12 [listing 2 of 2 here] | – | – | 4900 | 8500
CC(C)c1n[nH]c2c(Nc3ccc(Br)cc3)nc(N[C@@H](CO)C(C)C)nc12 | – | – | 5800 | 11400
CC(C)c1n[nH]c2c(Nc3ccc(Cl)cc3)nc(N[C@@H](CO)C(C)C)nc12 | – | – | 4100 | 5700
CC(C)c1n[nH]c2c(Nc3ccccc3)nc(N[C@@H](CO)C(C)C)nc12 | – | – | 2500 | 3600
CC[C@H](CO)Nc1nc(NCc2c(O)cc(OC)cc2O)c2[nH]nc(C(C)C)c2n1 | – | – | 1800 | 3400
CC[C@H](CO)Nc1nc(Nc2ccc(Cl)c(C(=O)O)c2)c2[nH]nc(C(C)C)c2n1 | – | – | 4500 | 5200
CC[C@H](CO)Nc1nc(Nc2ccc(N)c(Cl)c2)c2[nH]nc(C(C)C)c2n1 | – | – | 12200 | 19600
CC[C@H](CO)Nc1nc(Nc2ccc(C(=O)O)c(Cl)c2)c2[nH]nc(C(C)C)c2n1 | – | – | 7900 | 11200
CC[C@H](CO)Nc1nc(Nc2ccc(Br)cc2)c2[nH]nc(C(C)C)c2n1 | – | – | 6500 | 9800
CC[C@H](CO)Nc1nc(Nc2ccc(Cl)cc2)c2[nH]nc(C(C)C)c2n1 | – | – | 6700 | 9500
Cc1n[nH]c2c(NC(CO)c3ccccc3)nc(NCCO)nc12 (racemic) | – | – | 8900 | 9400

More lines, main results first:

IC50 (IκB-α kinase) [nM] | IC50 (cdk1/cyclin B (CDC2)) [nM] | SMILES | GI50 [1] [nM] | GI50 (B16) [nM]
30 | 10 | Cc1n[nH]c2c(NCc3cccc(Cl)c3O)nc(NCCO)nc12 | – | –
40 | 10 | COc1cccc(CNc2nc(NCCO)nc3c(C)n[nH]c23)c1O | – | –
30 | 10 | Cc1cccc(CNc2nc(NCCO)nc3c(C)n[nH]c23)c1O | – | –
50 | 20 | Cc1n[nH]c2c(NCc3ccccc3O)nc(NCCO)nc12 | – | –
28 | 8 | COc1ccc(CNc2nc(NCCO)nc3c(C)n[nH]c23)c(O)c1O | – | –
15 | 7 | COc1cc(O)c(CNc2nc(NCCO)nc3c(C)n[nH]c23)cc1O | – | –
12 | 5 | Cc1n[nH]c2c(NCc3c(O)cc(Cl)cc3O)nc(NCCO)nc12 | – | –
280 | 110 | CC(C)c1n[nH]c2c(Nc3cccc(Cl)c3)nc(NCCO)nc12 | – | –
11000 | 5000 | Cc1n[nH]c2c(NCc3ccc(O)c(O)c3)nc(NCCO)nc12 | – | –
200 | 80 | CC(C)c1n[nH]c2c(Nc3cccc(Cl)c3)nc(NCCCO)nc12 | – | –
50 | 20 | CC(=O)c1ccccc1CNc1nc(N[C@@H](CO)C(C)C)nc2c(C(C)C)n[nH]c12 | – | –
1 | 0.5 | CC(C)c1n[nH]c2c(NCc3ccccc3O)nc(N[C@@H](CO)C(C)C)nc12 [listing 1 of 2 here] | – | –
1 | 0.2 | CC(C)c1n[nH]c2c(NCc3ccc(Cl)c(O)c3O)nc(N[C@@H](CO)C(C)C)nc12 [listing 1 of 2 here] | – | –
1.2 | 0.4 | COc1ccc(CNc2nc(N[C@@H](CO)C(C)C)nc3c(C(C)C)n[nH]c23)c(O)c1O [listing 1 of 2 here] | – | –
1.5 | 0.6 | COc1cc(O)c(CNc2nc(N[C@@H](CO)C(C)C)nc3c(C(C)C)n[nH]c23)cc1O [listing 1 of 2 here] | – | –
1 | 0.8 | CC(C)c1n[nH]c2c(NCc3cc(O)c(Cl)cc3O)nc(N[C@@H](CO)C(C)C)nc12 [listing 2 of 2 here] | – | –
2 | 1 | CC(C)c1n[nH]c2c(NCc3c(O)cc(Cl)cc3O)nc(N[C@@H](CO)C(C)C)nc12 [listing 1 of 2 here] | – | –
1.6 | 0.7 | COc1cc(O)c(CNc2nc(N[C@@H](CO)C(C)C)nc3c(C(C)C)n[nH]c23)c(O)c1 | – | –
5 | 1 | CC(=O)c1cccc(CNc2nc(N[C@@H](CO)C(C)C)nc3c(C(C)C)n[nH]c23)c1 | – | –
4 | 2 | CC(C)c1n[nH]c2c(NCc3cccc(O)c3)nc(N[C@@H](CO)C(C)C)nc12 [listing 1 of 2 here] | – | –
310 | 150 | CC(C)c1n[nH]c2c(NCc3ccc(O)c(O)c3)nc(N[C@@H](CO)C(C)C)nc12 | – | –
150 | 90 | CC(C)c1n[nH]c2c(N(C)CCc3ccc(O)c(O)c3)nc(N[C@@H](CO)C(C)C)nc12 | – | –
110 | 30 | CC(C)c1n[nH]c2c(N(C)Cc3ccc(O)c(O)c3)nc(N[C@@H](CO)C(C)C)nc12 | – | –
1500 | 720 | CC[C@H](CO)Nc1nc(N(C)CCc2ccc(O)c(O)c2)c2[nH]nc(C(C)C)c2n1 | – | –
510 | 230 | CC[C@H](CO)Nc1nc(N(C)Cc2ccc(O)c(O)c2)c2[nH]nc(C(C)C)c2n1 | – | –
